The text below walks through data of US20150376172A1, “FLUORO-[1,3]OXAZINES AS BACE1 INHIBITORS” (HOFFMANN-LA ROCHE INC., priority 2013, published 2015).

For this test, the target named is T1, BACE1 (Homo sapiens, UniProt P56817).
T1 construct: endogenous in cells; host or cells: HEK293 APP cells
Put plainly: Cellular Aβ-lowering assay (Abeta 40 AlphaLISA). The test is classed as cell-based. The following applies: HEK293 APP cells; 18-20 hrs incubation; Aβ 40 in culture supernatants by AlphaLISA; read-out: BACE1 cell act. Aβ40 IC50. The procedure: Cellular Aβ-lowering assay:
The Abeta 40 AlphaLISA Assay can be used. The HEK293 APP cells were seeded in 96 well Microtiter plates in cell culture medium (Iscove's, plus 10% (v/v) fetal bovine serum, penicillin/streptomycin) to about 80% confluency and the compounds were added at a 3× concentration in ⅓ volume of culture medium (final DMSO concentration was kept at 1% v/v). After 18-20 hrs incubation at 37° C. and 5% CO2 in a humidified incubator, the culture supernatants were harvested for the determination of Aβ 40 concentrations using Perkin-Elmer Human Amyloid beta 1-40 (high specificity) Kit (Cat#AL275C).
In a Perkin-Elmer White Optiplate-384 (Cat#6007290), 2 ul culture supernatants were combined with 2 μl of a 10× AlphaLISA Anti-hAβAcceptor beads+Biotinylated Antibody Anti-Aβ1-40 Mix (50 μg/mL/5 nM). After 1 hour room temperature incubation, 16 μl of a 1.25× preparation of Streptavidin (SA) Donor beads (25 μg/mL) were added and incubated for 30 minutes in the Dark. Light Emission at 615 nm was then recorded using EnVision-Alpha Reader. Levels of Aβ 40 in the culture supernatants were calculated as percentage of maximum signal (cells treated with 1% DMSO without inhibitor). The IC50 values were calculated using the Excel XLfit software.

Where a name gives a salt, the structure may show the parent alone.

T1 sequence (P56817 46-501): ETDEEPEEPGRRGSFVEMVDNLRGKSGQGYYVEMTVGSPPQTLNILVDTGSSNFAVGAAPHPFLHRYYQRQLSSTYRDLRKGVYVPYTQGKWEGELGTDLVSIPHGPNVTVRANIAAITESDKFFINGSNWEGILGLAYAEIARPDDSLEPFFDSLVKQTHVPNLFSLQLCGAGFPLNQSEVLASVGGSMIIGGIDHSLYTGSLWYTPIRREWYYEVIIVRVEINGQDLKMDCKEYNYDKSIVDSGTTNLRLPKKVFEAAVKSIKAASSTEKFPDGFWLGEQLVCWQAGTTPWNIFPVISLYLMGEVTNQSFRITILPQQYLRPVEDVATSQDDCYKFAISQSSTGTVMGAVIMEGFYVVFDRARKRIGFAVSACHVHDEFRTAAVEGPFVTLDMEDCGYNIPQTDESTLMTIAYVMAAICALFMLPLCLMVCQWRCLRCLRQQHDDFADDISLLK

Turning to `C[C@]1(c2cc(NC(=O)c3ccc(C#N)cn3)ccc2F)N=C(N)O[C@@H](C(F)(F)F)[C@@H]1F` [Example 1, N-(3-((4R,5R,6R)-2-Amino-5-fluoro-4-methyl-6-(trifluoromethyl)-5,6-dihydro-4H-1,3-oxazin-4-yl)-4-fluorophenyl)-5-cyanopicolinamide], the IC50 was 150 nM.

For `C[C@]1(c2cc(NC(=O)c3ccc(C#N)cn3)ccc2F)N=C(N)O[C@H](C(F)(F)F)[C@@H]1F` [Example 2, N-(3-((4R,5R,6S)-2-Amino-5-fluoro-4-methyl-6-(trifluoromethyl)-5,6-dihydro-4H-1,3-oxazin-4-yl)-4-fluorophenyl)-5-cyanopicolinamide], the IC50 was 10 nM.

Turning to `C[C@]1(c2cc(NC(=O)c3ccc(Cl)cn3)ccc2F)N=C(N)O[C@@H](C(F)(F)F)[C@@H]1F` [Example 3, N-(3-((4R,5R,6R)-2-Amino-5-fluoro-4-methyl-6-(trifluoromethyl)-5,6-dihydro-4H-1,3-oxazin-4-yl)-4-fluorophenyl)-5-chloropicolinamide], the IC50 worked out at 490 nM.

`C[C@]1(c2cc(NC(=O)c3ccc(Cl)cn3)ccc2F)N=C(N)O[C@H](C(F)(F)F)[C@@H]1F` [Example 4, N-(3-((4R,5R,6S)-2-Amino-5-fluoro-4-methyl-6-(trifluoromethyl)-5,6-dihydro-4H-1,3-oxazin-4-yl)-4-fluorophenyl)-5-chloropicolinamide]: the IC50 stood at 14 nM.

In the case of `COc1cnc(C(=O)Nc2ccc(F)c([C@@]3(C)N=C(N)O[C@H](C(F)(F)F)[C@@H]3F)c2)cn1` [Example 5, N-(3-((4R,5R,6S)-2-Amino-5-fluoro-4-methyl-6-(trifluoromethyl)-5,6-dihydro-4H-1,3-oxazin-4-yl)-4-fluorophenyl)-5-methoxypyrazine-2-carboxamide], the IC50 amounted to 12 nM.

Regarding `C[C@]1(c2cc(NC(=O)c3cnc(C(F)F)cn3)ccc2F)N=C(N)O[C@H](C(F)(F)F)[C@@H]1F` [Example 6, N-(3-((4R,5R,6S)-2-Amino-5-fluoro-4-methyl-6-(trifluoromethyl)-5,6-dihydro-4H-1,3-oxazin-4-yl)-4-fluorophenyl)-5-(difluoromethyl)pyrazine-2-carboxamide], the IC50 was found to be 58 nM.

For the molecule `CC#CCOc1cnc(C(=O)Nc2ccc(F)c([C@@]3(C)N=C(N)O[C@H](C(F)(F)F)[C@@H]3F)c2)cn1` [Example 7, N-(3-((4R,5R,6S)-2-Amino-5-fluoro-4-methyl-6-(trifluoromethyl)-5,6-dihydro-4H-1,3-oxazin-4-yl)-4-fluorophenyl)-5-(but-2-ynyloxy)pyrazine-2-carboxamide], the IC50 worked out at 2 nM.

In the case of `C[C@]1(c2cc(NC(=O)c3ccc(C#N)cn3)ccc2F)N=C(N)O[C@H](C(F)(F)F)[C@@H]1OCC(F)(F)F` [Example 8, N-(3-((4R,5R,6S)-2-Amino-4-methyl-5-(2,2,2-trifluoroethoxy)-6-(trifluoromethyl)-5,6-dihydro-4H-1,3-oxazin-4-yl)-4-fluorophenyl)-5-cyanopicolinamide], the IC50 was 2 nM.

Regarding `C[C@]1(F)[C@H](C(F)(F)F)OC(N)=N[C@]1(C)c1cc(NC(=O)c2ccc(C#N)cn2)ccc1F` [Example 9, N-(3-((4R,5R,6R)-2-Amino-5-fluoro-4,5-dimethyl-6-(trifluoromethyl)-5,6-dihydro-4H-1,3-oxazin-4-yl)-4-fluorophenyl)-5-cyanopicolinamide], the IC50 was determined as 440 nM.

With `C[C@@]1(c2cc(-c3cncnc3)ccc2F)C[C@@H](C(F)(F)F)OC(N)=N1` [Example 11, (4S,6S)-4-(2-fluoro-5-(pyrimidin-5-yl)phenyl)-4-methyl-6-(trifluoromethyl)-5,6-dihydro-4H-1,3-oxazin-2-amine], the IC50 was found to be 420 nM.

Take `C[C@@]1(c2cc(-c3cncc(C#N)c3)ccc2F)C[C@@H](C(F)(F)F)OC(N)=N1` [Example 12, 5-(3-((4S,6S)-2-Amino-4-methyl-6-(trifluoromethyl)-5,6-dihydro-4H-1,3-oxazin-4-yl)-4-fluorophenyl)nicotinonitrile]: the IC50 stood at 900 nM.

On to `C[C@@]1(c2cc(-c3cncc(Cl)c3)ccc2F)C[C@@H](C(F)(F)F)OC(N)=N1` [Example 13, (4S,6S)-4-(5-(5-Chloropyridin-3-yl)-2-fluorophenyl)-4-methyl-6-(trifluoromethyl)-5,6-dihydro-4H-1,3-oxazin-2-amine], for which the IC50 came to 150 nM.

On to `CC#Cc1cncc(-c2ccc(F)c([C@]3(C)C[C@@H](C(F)(F)F)OC(N)=N3)c2)c1` [Example 14, (4S,6S)-4-(2-Fluoro-5-(5-(prop-1-ynyl)pyridin-3-yl)phenyl)-4-methyl-6-(trifluoromethyl)-5,6-dihydro-4H-1,3-oxazin-2-amine], for which the IC50 was found to be 250 nM.

In the case of `C[C@@]1(c2cc(-c3cncc(Cl)n3)ccc2F)C[C@@H](C(F)(F)F)OC(N)=N1` [Example 15, (4S,6S)-4-(5-(6-Chloropyrazin-2-yl)-2-fluorophenyl)-4-methyl-6-(trifluoromethyl)-5,6-dihydro-4H-1,3-oxazin-2-amine], the IC50 is 950 nM.

Take `C[C@@]1(c2cc(-c3cnn(C(F)F)c3)ccc2F)C[C@@H](C(F)(F)F)OC(N)=N1` [Example 16, (4S,6S)-4-(5-(1-(Difluoromethyl)-1H-pyrazol-4-yl)-2-fluorophenyl)-4-methyl-6-(trifluoromethyl)-5,6-dihydro-4H-1,3-oxazin-2-amine]: the IC50 worked out at 1100 nM.

Consider `C[C@@]1(c2cc(-c3cncnc3)c(F)cc2F)C[C@@H](C(F)(F)F)OC(N)=N1` [Example 17, (4S,6S)-4-(2,4-Difluoro-5-(pyrimidin-5-yl)phenyl)-4-methyl-6-(trifluoromethyl)-5,6-dihydro-4H-1,3-oxazin-2-amine], for which the IC50 is 190 nM.

With `C[C@@]1(c2cc(-c3cccnc3F)c(F)cc2F)C[C@@H](C(F)(F)F)OC(N)=N1` [Example 18, (4S,6S)-4-(2,4-Difluoro-5-(2-fluoropyridin-3-yl)phenyl)-4-methyl-6-(trifluoro-methyl)-5,6-dihydro-4H-1,3-oxazin-2-amine], the IC50 came to 120 nM.

On to `CC#Cc1cncc(-c2cc([C@]3(C)C[C@@H](C(F)(F)F)OC(N)=N3)c(F)cc2F)c1` [Example 19, (4S,6S)-4-(2,4-Difluoro-5-(5-(prop-1-ynyl)pyridin-3-yl)phenyl)-4-methyl-6-(trifluoromethyl)-5,6-dihydro-4H-1,3-oxazin-2-amine], for which the IC50 was 570 nM.

As for `C[C@@]1(c2cc(C#Cc3ccnc(Cl)c3)ccc2F)C[C@@H](C(F)(F)F)OC(N)=N1` [Example 20, (4S,6S)-4-(5-((2-Chloropyridin-4-yl)ethynyl)-2-fluorophenyl)-4-methyl-6-(trifluoromethyl)-5,6-dihydro-4H-1,3-oxazin-2-amine], the IC50 amounted to 250 nM.

On to `C[C@@]1(c2cc(C#Cc3ccc(C#N)cn3)ccc2F)C[C@@H](C(F)(F)F)OC(N)=N1` [Example 21, 6-((3-((4S,6S)-2-Amino-4-methyl-6-(trifluoromethyl)-5,6-dihydro-4H-1,3-oxazin-4-yl)-4-fluorophenyl)ethynyl)nicotinonitrile], for which the IC50 is 59 nM.

With `C[C@@]1(c2cc(C#Cc3cccnc3)ccc2F)C[C@@H](C(F)(F)F)OC(N)=N1` [Example 22, (4S,6S)-4-(2-Fluoro-5-(pyridin-3-ylethynyl)phenyl)-4-methyl-6-(trifluoromethyl)-5,6-dihydro-4H-1,3-oxazin-2-amine], the IC50 was 470 nM.

Regarding `C[C@@]1(c2cc(C#Cc3ncc(Cl)cn3)ccc2F)C[C@@H](C(F)(F)F)OC(N)=N1` [Example 23, (4S,6S)-4-(5-((5-Chloropyrimidin-2-yl)ethynyl)-2-fluorophenyl)-4-methyl-6-(trifluoromethyl)-5,6-dihydro-4H-1,3-oxazin-2-amine], the IC50 was determined as 77 nM.

Regarding `COc1cnc(C#Cc2ccc(F)c([C@]3(C)C[C@@H](C(F)(F)F)OC(N)=N3)c2)nc1` [Example 24, (4S,6S)-4-(2-Fluoro-5-((5-methoxypyrimidin-2-yl)ethynyl)phenyl)-4-methyl-6-(trifluoromethyl)-5,6-dihydro-4H-1,3-oxazin-2-amine], the IC50 came out at 1670 nM.

With `COc1cnc(C#Cc2ccc(F)c([C@]3(C)C[C@@H](C(F)(F)F)OC(N)=N3)c2)cn1` [Example 25, (4S,6S)-4-(2-Fluoro-5-((5-methoxypyrazin-2-yl)ethynyl)phenyl)-4-methyl-6-(trifluoromethyl)-5,6-dihydro-4H-1,3-oxazin-2-amine], the IC50 is 1280 nM.

Regarding `C[C@@]1(c2cc(-c3cncc(C#N)c3)cs2)C[C@@H](C(F)(F)F)OC(N)=N1` [Example 26, 5-(5-((4S,6S)-2-Amino-4-methyl-6-(trifluoromethyl)-5,6-dihydro-4H-1,3-oxazin-4-yl)thiophen-3-yl)nicotinonitrile Hydrochloride], the IC50 was 700 nM.

On to `C[C@@]1(c2cc(-c3cccnc3F)cs2)C[C@@H](C(F)(F)F)OC(N)=N1` [Example 27, (4S,6S)-4-(4-(2-Fluoropyridin-3-yl)thiophen-2-yl)-4-methyl-6-(trifluoromethyl)-5,6-dihydro-4H-1,3-oxazin-2-amine Hydrochloride], for which the IC50 was 1380 nM.
